Data on two molecules can be found in ChEMBL document CHEMBL5728597, “Tetrahydroquinoline derivatives as P2X7 receptor antagonists” (2021).

This experiment has as its target T1, P2X purinoceptor 7 (Homo sapiens, UniProt Q99572).
T1 sequence (Q99572 whole entry): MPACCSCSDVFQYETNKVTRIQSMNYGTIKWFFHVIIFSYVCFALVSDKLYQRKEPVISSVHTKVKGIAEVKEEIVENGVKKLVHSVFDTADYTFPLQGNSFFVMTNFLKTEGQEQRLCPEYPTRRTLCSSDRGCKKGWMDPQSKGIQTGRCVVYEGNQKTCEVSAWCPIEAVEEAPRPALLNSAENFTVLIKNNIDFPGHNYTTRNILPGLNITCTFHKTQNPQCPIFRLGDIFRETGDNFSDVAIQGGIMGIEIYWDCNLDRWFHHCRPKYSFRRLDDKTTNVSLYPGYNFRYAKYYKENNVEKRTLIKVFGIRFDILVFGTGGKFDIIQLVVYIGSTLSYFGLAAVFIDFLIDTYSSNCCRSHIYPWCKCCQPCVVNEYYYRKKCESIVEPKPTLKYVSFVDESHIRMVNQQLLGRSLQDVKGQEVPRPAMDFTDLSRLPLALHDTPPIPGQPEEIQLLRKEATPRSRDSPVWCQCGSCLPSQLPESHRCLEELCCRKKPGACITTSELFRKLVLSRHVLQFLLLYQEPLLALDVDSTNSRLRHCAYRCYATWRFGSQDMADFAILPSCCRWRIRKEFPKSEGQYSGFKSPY
Description: Pharmacological Assay: 1. […] Incubate the plate at 37° C. in 5% CO2 for 1 h.4. […] Test compounds were prepared at 100× the test concentration in DMSO by serial dilution with Biomek-FX liquid handling instrument. 33× diluted compound solutions in assay buffer were prepared in intermediate compound plate with Biomek-NX liquid handling instrument. A further 3× dilution occurred in below steps 6 and 7.6. Add 20 microL of 33× diluted compound solutions into each well and leave the plate for 10 min under the dark at room temperature.7. Measure activity by FDSS as follows:Set the assay plate on the stacker of FDSS.Start the detection of fluorescence intensity at 540 nm by 480 nm exicitation.After 30 seconds, add 20 microL of assay buffer containing 240 microM BzATP (final concentration 80 microM).

As for `NC(=O)CC1CCC(C(=O)NCc2cccc(C(F)(F)F)c2Cl)c2cccnc21` (configuration not stated), the IC50 – broadly, the concentration that inhibits the measured activity by half – is below 50 nM.

As to `O=C(NCc1ccc(C(F)(F)F)cc1Cl)[C@]1(F)CC[C@H](O)c2ncccc21`, the IC50 was below 50 nM.
